From patent US20080292561A1, “Pyrazolo-Pyrimidine Derivatives as Anti-Inflammatory Agents” (Glaxo Group Limited, priority 2005, published 2008)

Tested on: NFkB activity
Assay: Glucocorticoid mediated transrepression of NFkB activity (A549 cells, ELAM promoter alkaline phosphatase reporter, TNFα)
Type: cell-based
Conditions: Homo sapiens, A549, 16 h, Human A549 lung epithelial cells, 3 ng/ml human recombinant TNFα, read-out: pIC50, transrepression of NFkB activity (converted)
Text: Human A549 lung epithelial cells were engineered to contain a secreted placental alkaline phosphatase gene under the control of the distal region of the NFkB dependent ELAM promoter as previously described in Ray, K. P., Farrow, S., Daly, M., Talabot, F. and Searle, N. “Induction of the E-selectin promoter by interleukin 1 and tumour necrosis factor alpha, and inhibition by glucocorticoids” Biochemical Journal (1997) 328: 707-15.
Compounds were solvated and diluted in DMSO, and transferred directly into assay plates such that the final concentration of DMSO was 0.7%. Following the addition of cells (40K per well), plates were incubated for 1 hr prior to the addition of 3 ng/ml human recombinant TNFα. Following continued incubation for 16 hr, alkaline phosphatase activity was determined by measuring the change in optical density at 405 nm with time following the addition of 0.7 volumes of assay buffer (1 mg/ml p-nitrophenylphosphate dissolved in 1M diethanolamine, 0.28M NaCl, 0.5 mM MgCl2). Dose response curves were constructed from which EC50 values were estimated.

SMILES | IC50
COc1ccc(F)cc1C(C)(C)CC(O)(CNc1nc(C)nc2c1cnn2-c1ccc(F)nc1)C(F)(F)F (stereo not drawn) [Example 20, 1,1,1-Trifluoro-4-[5-fluoro-2-(methyloxy)phenyl]-2-({[1-(6-fluoro-3-pyridinyl)-6-methyl-1H-pyrazolo[3,4-d]pyrimidin-4-yl]amino}methyl)-4-methyl-2-pentanol] | < 100 nM
COc1ccc(F)cc1C(C)(C)CC(O)(CNc1nc(C)nc2c1cnn2-c1ccc(C#N)cc1)C(F)(F)F (stereo not drawn) [Example 21, 4-(4-{[4-[5-Fluoro-2-(methyloxy)phenyl]-2-hydroxy-4-methyl-2-(trifluoromethyl)pentyl]amino}-6-methyl-1H-pyrazolo[3,4-d]pyrimidin-1-yl)benzonitrile] | < 100 nM
CCOC(=O)c1cccc(-n2ncc3c(NCC(O)(CC(C)(C)c4cc(F)ccc4OC)C(F)(F)F)nc(C)nc32)c1 (stereo not drawn) [Example 22, Ethyl 3-(4-{[4-[5-fluoro-2-(methyloxy)phenyl]-2-hydroxy-4-methyl-2-(trifluoromethyl)pentyl]amino}-6-methyl-1H-pyrazolo[3,4-d]pyrimidin-1-yl)benzoate] | < 100 nM
COC(=O)c1cccc(-n2ncc3c(NCC(O)(CC(C)(C)c4cc(F)ccc4OC)C(F)(F)F)nc(C)nc32)c1 (stereo not drawn) [Example 23, Methyl 3-(4-{[4-[5-fluoro-2-(methyloxy)phenyl]-2-hydroxy-4-methyl-2-(trifluoromethyl)pentyl]amino}-6-methyl-1H-pyrazolo[3,4-d]pyrimidin-1-yl)benzoate] | < 100 nM
CCc1nc(NCC(O)(CC(C)(C)c2cc(F)ccc2OC)C(F)(F)F)c2cnn(-c3ccc(F)cc3)c2n1 (stereo not drawn) [Example 24, 2-({[6-Ethyl-1-(4-fluorophenyl)-1H-pyrazolo[3,4-d]pyrimidin-4-yl]amino}methyl)-1,1,1-trifluoro-4-[5-fluoro-2-(methyloxy)phenyl]-4-methyl-2-pentanol] | < 100 nM
CCc1nc(NCC(O)(CC(C)(C)c2cc(F)ccc2OC)C(F)(F)F)c2cnn(-c3ccccc3)c2n1 (stereo not drawn) [Example 26, 2-{[(6-Ethyl-1-phenyl-1H-pyrazolo[3,4-d]pyrimidin-4-yl)amino]methyl}-1,1,1-trifluoro-4-[5-fluoro-2-(methyloxy)phenyl]-4-methyl-2-pentanol] | < 100 nM
COc1ccc(F)cc1C(C)(C)CC(O)(CNc1nc(C)nc2c1cnn2-c1cccc(C#N)c1)C(F)(F)F (stereo not drawn) [Example 27, 3-(4-{[4-[5-Fluoro-2-(methyloxy)phenyl]-2-hydroxy-4-methyl-2-(trifluoromethyl)pentyl]amino}-6-methyl-1H-pyrazolo[3,4-d]pyrimidin-1-yl)benzonitrile] | < 100 nM
CCc1nc(NCC(O)(CC(C)(C)c2cccc3c2OCC3)C(F)(F)F)c2cnn(-c3cccc(C#N)c3)c2n1 (stereo not drawn) [Example 29, 3-(4-{[4-(2,3-Dihydro-1-benzofuran-7-yl)-2-hydroxy-4-methyl-2-(trifluoromethyl)pentyl]amino}-6-ethyl-1H-pyrazolo[3,4-d]pyrimidin-1-yl)benzonitrile] | < 100 nM
CCc1nc(NCC(O)(CC(C)(C)c2cccc3c2OCC3)C(F)(F)F)c2cnn(-c3cccc(C(=O)OC)c3)c2n1 (stereo not drawn) [Example 30, Methyl 3-(4-{[4-(2,3-dihydro-1-benzofuran-7-yl)-2-hydroxy-4-methyl-2-(trifluoromethyl)pentyl]amino}-6-ethyl-1H-pyrazolo[3,4-d]pyrimidin-1-yl)benzoate] | < 100 nM
